# Assay results published in the supplement of paper PMC10307832.
# How the values were obtained:
# Experiment in all cases: relative viability (nuclei count vs DMSO), 5 days (fraction); higher = more cells survive
# [1] = compound: CO[C@@H]1[C@H](N(C)C(=O)c2ccccc2)C[C@H]2O[C@]1(C)n1c3ccccc3c3c4c(c5c6ccccc6n2c5c31)C(=O)NC4 [Midostaurin] + COc1cccc2cc(-c3nc([C@H]4CC[C@H](C(=O)O)CC4)n4ncnc(N)c34)[nH]c12 [OSI-027] (partner 0.5 µM)
# In short: (§1)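 Medians of duplicate plates are given as relative viability. That measure is the nuclei count in treated wells divided by the count in vehicle wells. Counts were taken on 4× images of lung cancer cell lines in 1536-well plates, 5 days after pin-tool dosing the day after seeding with one drug alone or a fixed anchor-drug dose plus five library-drug doses (not always all listed) in √10 steps.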
# [2] = compound: CO[C@@H]1[C@H](N(C)C(=O)c2ccccc2)C[C@H]2O[C@]1(C)n1c3ccccc3c3c4c(c5c6ccccc6n2c5c31)C(=O)NC4 [Midostaurin] + C[C@@H](Oc1cc(-c2cnn(C3CCNCC3)c2)cnc1N)c1c(Cl)ccc(F)c1Cl [Crizotinib] (partner 1 µM)
# In short: as §1
# [3] = compound: CO[C@@H]1[C@H](N(C)C(=O)c2ccccc2)C[C@H]2O[C@]1(C)n1c3ccccc3c3c4c(c5c6ccccc6n2c5c31)C(=O)NC4 [Midostaurin] + Cc1nc(Nc2ncc(C(=O)Nc3c(C)cccc3Cl)s2)cc(N2CCN(CCO)CC2)n1 [Dasatinib] (partner 0.075 µM)
# In short: as §1
# [4] = compound: CO[C@@H]1[C@H](N(C)C(=O)c2ccccc2)C[C@H]2O[C@]1(C)n1c3ccccc3c3c4c(c5c6ccccc6n2c5c31)C(=O)NC4 [Midostaurin] + Nc1ncn([C@H]2C[C@H](O)[C@@H](CO)O2)c(=O)n1 [Decitabine] (partner 2 µM)
# In short: as §1
# [5] = compound: COc1cc(-c2nn([C@H]3CC[C@H](N4CCN(C(C)=O)CC4)CC3)c3ncnc(N)c23)ccc1NC(=O)c1cc2ccccc2n1C + CC(=O)Nc1cccc(-n2c(=O)n(C3CC3)c(=O)c3c(Nc4ccc(I)cc4F)n(C)c(=O)c(C)c32)c1 [Trametinib] (partner 0.02 µM)
# In short: as §1
Cell Line,relative viability ([1]; first compound 0.01 µM),relative viability ([1]; first compound 0.03162 µM),relative viability ([1]; first compound 0.1 µM),relative viability ([1]; first compound 0.3162 µM),relative viability ([2]; first compound 0.01 µM),relative viability ([2]; first compound 0.03162 µM),relative viability ([2]; first compound 0.1 µM),relative viability ([2]; first compound 0.3162 µM),relative viability ([3]; first compound 0.01 µM),relative viability ([3]; first compound 0.03162 µM),relative viability ([3]; first compound 0.1 µM),relative viability ([3]; first compound 0.3162 µM),relative viability ([4]; first compound 0.01 µM),relative viability ([4]; first compound 0.03162 µM),relative viability ([4]; first compound 0.1 µM),relative viability ([4]; first compound 0.3162 µM),relative viability ([5]; first compound 0.0128 µM),relative viability ([5]; first compound 0.04048 µM),relative viability ([5]; first compound 0.128 µM),relative viability ([5]; first compound 1.28 µM)
NCI-H838,0.481,0.394,0.382,0.349,0.877,0.634,0.812,0.524,0.237,0.282,0.292,0.288,0.478,0.447,0.385,0.328,0.5,0.479,0.506,0.403
NCI-H1755,0.74,0.677,0.678,0.483,0.808,0.805,0.761,0.484,0.413,0.447,0.436,0.343,0.778,0.684,0.715,0.739,0.907,0.651,0.769,0.745
HCC-78,0.432,0.332,0.381,0.299,0.363,0.288,0.38,0.329,0.375,0.371,0.373,0.219,0.651,0.676,0.613,0.72,0.851,0.536,0.776,0.453
IA-LM,–,–,–,–,0.751,0.712,0.606,0.448,–,–,–,–,–,–,–,–,–,–,–,–
NCI-H322M,0.633,0.489,0.595,0.569,0.982,0.948,0.912,0.905,0.272,0.233,0.258,0.332,0.638,0.673,0.651,0.715,0.453,0.489,0.491,0.463
NCI-H3122,0.932,0.492,1.06,1.41,0.286,0.258,0.3,0.331,0.779,0.698,0.731,0.978,0.394,0.395,0.531,0.551,0.209,–,0.165,0.162
COR-L23,0.706,0.681,0.795,0.802,0.653,0.633,0.541,0.464,0.436,0.455,0.368,0.27,0.381,0.441,0.448,0.434,0.585,0.25,0.564,0.592
NCI-H2087,0.567,0.491,0.573,0.554,0.794,0.655,0.835,0.656,1.03,0.757,0.917,0.777,0.276,0.323,0.357,0.194,0.209,–,0.207,0.17
